Data set [1] in a line: Epimerization rate assay in buffer. The class given is physicochemical. The settings on record: 1 uM and 10 uM. On the procedure:
(§1) The epimerization rate was measured according to the following assay. Specifically, 100 μL medium (buffer, rat plasma, dog plasma, or human plasma) was added into a 96-well deep plate. To the plasma was then added 10 μL acetonitrile solution containing a test compound (1S,3aR,6aS)-2-((S)-2-((S)-2-cyclohexyl-2-(pyrazine-2-carboxamido)acetamido)-3,3-dimethylbutanoyl)-N—((S)-1-(cyclopropylamino)-1,2-dioxo-3-deutero-hexan-3-yl)octahydrocyclopenta[c]pyrrole-1-carboxamide (at 1 uM or 10 uM) and 1200 μL ethyl acetate into the 96 deep-well plate (2 mL) by using a TomTec liquid handling workstation (Hamden, Conn., USA). The plate was then covered tightly and shaken with a vortex for 20 minutes before it was centrifuged at 3000 rpm for 10 minutes. After centrifuge, 900 μL of the supernatant was transferred to a new V-shape 96 deep-well plate using TomTec, and then dried under nitrogen gas (flow rate of 60 L/min) at 25° C. for about 30 minutes. The residue was reconstituted with 100 μL ethyl acetate, and the solution was again transferred into the glass inserts in the 96-well plate. 20 uL of the reconstituted solution was injected into LC-MS/MS to determine the amount of the epimers. The LC-MS/MS spectrometer used a ChiralPak AD Column (4.6×150 mm, 10 μm), a mixture of isopropanol and n-heptane (10:90, 50:50, or 90:10) as the mobile phase, and isopropanol as the washing solvent. […]

Data set [2] is classed as in vitro ADME. The settings on record: human. On the procedure:
as §1

Consider 1 molecule from patent US8247532B2, “Deuterated hepatitis C protease inhibitors” (Vertex Pharmaceuticals Incorporated, priority 2006, dated 2012).

For the molecule `[2H][C@@](CCC)(NC(=O)[C@@H]1[C@H]2CCC[C@H]2CN1C(=O)[C@@H](NC(=O)[C@@H](NC(=O)c1cnccn1)C1CCCCC1)C(C)(C)C)C(=O)C(=O)NC1CC1` [deuterated compound, (1S,3aR,6aS)-2-((S)-2-((S)-2-cyclohexyl-2-(pyrazine-2-carboxamido)acetamido)-3,3-dimethylbutanoyl)-N—((S)-1-(cyclopropylamino)-1,2-dioxo-3-deutero-hexan-3-yl)octahydrocyclopenta[c]pyrrole-1-carboxamide], in data set [1], the “epimerization rate compared with non-deuterated form” value is recorded as “slower epimerization rate”. Moreover, in data set [2], the “time course (shape) of epimerization” value is listed as “linear rate for 180 minutes”.
